Holding throughout (format): cell-based
For test [1], the system named is S. pneumoniae ATCC 49619. The test can be described thus: MIC against S. pneumoniae ATCC 49619. Particulars: Streptococcus pneumoniae, ATCC49619, S. pneumoniae ATCC 49619; read-out: MIC.
Test [2] relates to B. fragilis ATCC 25285. The test can be described thus: MIC against B. fragilis ATCC 25285. Particulars: Bacteroides fragilis, ATCC25285.
The subject of test [3] is S. aureus MP-549 msr(a) USA 300. The test can be described thus: MIC against S. aureus MP-549 msr(a) USA 300. Particulars: Staphylococcus aureus, USA300, S. aureus MP-549 msr(a) USA 300.
The test system of test [4] is K. pneumoniae ATCC 10031. The test can be described thus: MIC against K. pneumoniae ATCC 10031. Particulars: Klebsiella pneumoniae, ATCC10031, read-out: MIC.
Test [5] relates to E. faecalis ATCC 29212. The test can be described thus: MIC against E. faecalis ATCC 29212. The note with it: Enterococcus faecalis, ATCC29212, E. faecalis ATCC 29212; read-out: MIC.
Test [6] relates to H. influenzae ATCC 49247. The test can be described thus: MIC against H. influenzae ATCC 49247. The note with it: Haemophilus influenzae, ATCC49247, H. influenzae ATCC 49247; read-out: MIC.
The test system of test [7] is E. coli MP-9 ΔTolC. The test can be described thus: MIC against E. coli MP-9 ΔTolC. The note with it: Escherichia coli.
The test system of test [8] is S. pyogenes ATCC 19615. The test can be described thus: MIC against S. pyogenes ATCC 19615. The note with it: Streptococcus pyogenes, ATCC19615, S. pyogenes ATCC 19615; read-out: MIC.
For test [9], the system named is S. pneumoniae MMX 3031 cMefA. The test can be described thus: MIC against S. pneumoniae MMX 3031 cMefA. Particulars: Streptococcus pneumoniae, MMX3031CMEFA.
In test [10] the test system is S. pyogenes MMX 946 Macrolide-Resistant. The test can be described thus: MIC against S. pyogenes MMX 946 Macrolide-Resistant. Particulars: Streptococcus pyogenes.
In test [11] the test system is E. coli MP-74 LptD mutant. The test can be described thus: MIC against E. coli MP-74 LptD mutant. The note with it: Escherichia coli.
Test [12] relates to C. difficile BAA 1805. The test can be described thus: MIC against C. difficile BAA 1805. Particulars: Clostridioides difficile, BAA1805.
The test system of test [13] is S. pneumoniae MMX 3028 cErmB. The test can be described thus: MIC against S. pneumoniae MMX 3028 cErmB. Particulars: Streptococcus pneumoniae, MMX3028CERMB.
The test system of test [14] is E. faecalis MMX 847 MacRes. The test can be described thus: MIC against E. faecalis MMX 847 MacRes. Particulars: Enterococcus faecalis, MMX847MACRES.
Test [15] relates to E. coli ATCC 25922. The test can be described thus: MIC against E. coli ATCC 25922. Particulars: Escherichia coli, ATCC25922, read-out: MIC.
Test [16] concerns S. aureus ATCC 29213. The test can be described thus: MIC against S. aureus ATCC 29213. Particulars: Staphylococcus aureus, ATCC29213, S. aureus ATCC 29213; read-out: MIC.
Test [17] concerns S. aureus MMX 3035 cErmA. The test can be described thus: MIC against S. aureus MMX 3035 cErmA. Particulars: Staphylococcus aureus, MMX3035CERMA.
Test [18] concerns S. aureus BAA 977 iErmA. The test can be described thus: MIC against S. aureus BAA 977 iErmA. Particulars: Staphylococcus aureus, BAA977.
The mark [19] stands for this setting: S. pyogenes MMX 946 Macrolide-Resistant (MacRes), read-out: MIC.
Where [20] appears, read: S. pneumoniae MMX 3028 cErmB, read-out: MIC.

Structures are written as SMILES. In brackets after ≈: the same amount, converted by molar mass. Read-outs that look alike come from different tables or passages of the source. Where only a bound is given, the exact number is not on record here.

Regarding `CCC[C@@H]1C[C@@H](C(=O)N[C@@H]([C@H]2O[C@H](SC)[C@H](O)[C@@H](O)[C@H]2O)[C@H](C)Cl)N(C)C1` [Clindamycin, clindamycin, reference compound], the MIC in [1] was 0.12 µg/mL (≈ 0.282 µM); in [2], 0.5 µg/mL (≈ 1.18 µM); in [3] it was 0.125 µg/mL (≈ 0.294 µM); in [4] it was 8 µg/mL (≈ 18.8 µM); in [5], 16 µg/mL (≈ 37.6 µM); in [6] it was 16 µg/mL (≈ 37.6 µM). Moreover, the MIC in [7] is 8 µg/mL (≈ 18.8 µM); in test [8], 0.06 µg/mL (≈ 0.141 µM); in [9], 0.06 µg/mL (≈ 0.141 µM); in test [10], greater than 64 µg/mL; in [11], 2 µg/mL (≈ 4.71 µM); in [12] it was 8 µg/mL (≈ 18.8 µM). The MIC in test [13] was greater than 64 µg/mL.
In the case of `CCC[C@@H]1C[C@@H](C(=O)N[C@H](CNc2ccc(-c3cccnc3)cc2)[C@H]2OC(SC)[C@H](O)C(O)C2O)N(C)C1` (stereo partly drawn) [FSA-214087], the MIC in test [1] was 8 µg/mL (≈ 14.7 µM); in [3], 32 µg/mL (≈ 58.7 µM); in [14] it was greater than 64 µg/mL; in test [15], greater than 64 µg/mL; in test [5], greater than 64 µg/mL; in test [7], greater than 64 µg/mL. In addition, the MIC was 32 µg/mL (≈ 58.7 µM) in [16]; 8 µg/mL (≈ 14.7 µM) in [8]; greater than 64 µg/mL in [17]; 32 µg/mL (≈ 58.7 µM) in test [9]; greater than 64 µg/mL in test [10] (setting [19]); greater than 64 µg/mL in [13] (setting [20]).
For `CCC[C@@H]1C[C@@H](C(=O)N[C@H](CN=[N+]=[N-])[C@H]2OC(SC)[C@H](O)C(O)C2O)N(C)C1` (stereo partly drawn) [FSA-215003], the MIC was 4 µg/mL (≈ 9.58 µM) in test [1]; 0.125 µg/mL (≈ 0.299 µM) in test [3]; greater than 64 µg/mL in test [14]; greater than 64 µg/mL in test [15]; 32 µg/mL (≈ 76.6 µM) in [5]; 4 µg/mL (≈ 9.58 µM) in test [7]. For the same molecule, the MIC is 8 µg/mL (≈ 19.2 µM) in test [16]; 2 µg/mL (≈ 4.79 µM) in test [8]; greater than 64 µg/mL in [17]; 0.125 µg/mL (≈ 0.299 µM) in test [9]; greater than 64 µg/mL in test [10] (setting [19]); greater than 64 µg/mL in [13] (setting [20]).
`CCC[C@@H]1C[C@@H](C(=O)N[C@H]([C@H](C)NC(=O)CN)[C@H]2OC(SC)[C@H](O)C(O)C2O)N(C)C1` (stereo partly drawn) [FSA-215071]: the MIC is 8 µg/mL (≈ 17.3 µM) in test [1]; greater than 64 µg/mL in test [3]; greater than 64 µg/mL in test [4]; greater than 64 µg/mL in test [15]; greater than 64 µg/mL in test [5]; greater than 64 µg/mL in test [18]. For the same molecule, the MIC in [6] was greater than 64 µg/mL; in test [7], greater than 64 µg/mL; in test [16] it was greater than 64 µg/mL; in test [8], 16 µg/mL (≈ 34.6 µM); in test [11] it was greater than 64 µg/mL; in test [12] it was greater than 64 µg/mL.
In the case of `CCC[C@@H]1C[C@@H](C(=O)N[C@H]([C@H](C)NC(=O)CNC)[C@H]2OC(SC)[C@H](O)C(O)C2O)N(C)C1` (stereo partly drawn) [FSA-215078a], the MIC in [1] is 16 µg/mL (≈ 33.6 µM); in [2], greater than 64 µg/mL; in test [3], greater than 64 µg/mL; in test [4], greater than 64 µg/mL; in test [15] it was greater than 64 µg/mL; in test [5] it was greater than 64 µg/mL. The MIC was greater than 64 µg/mL in test [18]; greater than 64 µg/mL in test [6]; greater than 64 µg/mL in test [7]; greater than 64 µg/mL in test [16]; 8 µg/mL (≈ 16.8 µM) in test [8]; greater than 64 µg/mL in test [11]. Besides, the MIC in test [12] is greater than 64 µg/mL.
For the molecule `CCC[C@@H]1C[C@@H](C(=O)N[C@H]([C@H](C)NC(=O)CN(C)C)[C@H]2OC(SC)[C@H](O)C(O)C2O)N(C)C1` (stereo partly drawn) [FSA-215078b], the MIC in test [1] is 8 µg/mL (≈ 16.3 µM); in [3], greater than 64 µg/mL; in [4], greater than 64 µg/mL; in [15], greater than 64 µg/mL; in [5], greater than 64 µg/mL; in test [18] it was greater than 64 µg/mL. For the same molecule, the MIC in test [6] was greater than 64 µg/mL; in test [7], greater than 64 µg/mL; in test [16], greater than 64 µg/mL; in test [8] it was 8 µg/mL (≈ 16.3 µM); in test [11], greater than 64 µg/mL; in [12], greater than 64 µg/mL.
Regarding `CCC[C@@H]1C[C@@H](C(=O)N[C@H]([C@H](C)NC)[C@H]2OC(SC)[C@H](O)C(O)C2O)N(C)C1` (stereo partly drawn) [FSA-215082], the MIC in test [1] was 16 µg/mL (≈ 38.1 µM); in test [2], greater than 64 µg/mL; in [3], greater than 64 µg/mL; in [4] it was greater than 64 µg/mL; in test [15], greater than 64 µg/mL; in test [5] it was greater than 64 µg/mL. In addition, the MIC in test [18] was 64 µg/mL (≈ 153 µM); in test [6] it was greater than 64 µg/mL; in test [7] it was greater than 64 µg/mL; in test [16], 64 µg/mL (≈ 153 µM); in test [8] it was 32 µg/mL (≈ 76.3 µM); in [11], greater than 64 µg/mL. Also, the MIC in test [12] is greater than 64 µg/mL.

Source of the values: US11566039B2, “Lincosamide antibiotics and uses thereof” (President and Fellows of Harvard College, priority 2017, dated 2023).
